Data set [1] deals with Voltage-gated inwardly rectifying potassium channel KCNH2 (Homo sapiens, UniProt Q12809). Description: Displacement of labeled dofetilide from human ERG.
Data set [2] deals with Human immunodeficiency virus 1. As to the kind of experiment: Antiviral activity against HIV1 Ba-L infected in human HOS cells expressing CCR5 after 4 days. Type of data set: functional, organism-based.
In data set [3] the test system is Human immunodeficiency virus 1. Description: Antiviral activity against HIV1 Ba-L infected in human PBL cells assessed as reverse transcriptase activity after 7 days. Type of data set: functional, organism-based. As to conditions: Human immunodeficiency virus 1, Ba-L, 168 h.
Data set [4] is described as follows: Half life in rat hepatocytes. The class given is ADME, cell-based, Liver, Hepatocyte.
The nature of data set [5]: Oral bioavailability in Sprague-Dawley rat at 1 mg/kg. The class given is ADME, organism-based. The settings on record: in vivo.
A short description of data set [6]: Half life in human hepatocytes. Type of data set: ADME, cell-based, Liver, Hepatocyte.
A further data set deals with Rattus norvegicus. Description: AUC in Sprague-Dawley rat at 1 mg/kg, iv and po. The class given is ADME, organism-based, Plasma. More on the design: dose 1 mg/kg, route oral; unit not given here. As to conditions: in vivo.
A short description of data set [7]: Apparent permeability across MDCK cells. The class given is ADME, cell-based, Canis lupus familiaris. The settings on record: dog.
Setting [8] is: Human immunodeficiency virus 1, Ba-L, HOS, 96 h.

Sequence of Voltage-gated inwardly rectifying potassium channel KCNH2 (Q12809 whole entry): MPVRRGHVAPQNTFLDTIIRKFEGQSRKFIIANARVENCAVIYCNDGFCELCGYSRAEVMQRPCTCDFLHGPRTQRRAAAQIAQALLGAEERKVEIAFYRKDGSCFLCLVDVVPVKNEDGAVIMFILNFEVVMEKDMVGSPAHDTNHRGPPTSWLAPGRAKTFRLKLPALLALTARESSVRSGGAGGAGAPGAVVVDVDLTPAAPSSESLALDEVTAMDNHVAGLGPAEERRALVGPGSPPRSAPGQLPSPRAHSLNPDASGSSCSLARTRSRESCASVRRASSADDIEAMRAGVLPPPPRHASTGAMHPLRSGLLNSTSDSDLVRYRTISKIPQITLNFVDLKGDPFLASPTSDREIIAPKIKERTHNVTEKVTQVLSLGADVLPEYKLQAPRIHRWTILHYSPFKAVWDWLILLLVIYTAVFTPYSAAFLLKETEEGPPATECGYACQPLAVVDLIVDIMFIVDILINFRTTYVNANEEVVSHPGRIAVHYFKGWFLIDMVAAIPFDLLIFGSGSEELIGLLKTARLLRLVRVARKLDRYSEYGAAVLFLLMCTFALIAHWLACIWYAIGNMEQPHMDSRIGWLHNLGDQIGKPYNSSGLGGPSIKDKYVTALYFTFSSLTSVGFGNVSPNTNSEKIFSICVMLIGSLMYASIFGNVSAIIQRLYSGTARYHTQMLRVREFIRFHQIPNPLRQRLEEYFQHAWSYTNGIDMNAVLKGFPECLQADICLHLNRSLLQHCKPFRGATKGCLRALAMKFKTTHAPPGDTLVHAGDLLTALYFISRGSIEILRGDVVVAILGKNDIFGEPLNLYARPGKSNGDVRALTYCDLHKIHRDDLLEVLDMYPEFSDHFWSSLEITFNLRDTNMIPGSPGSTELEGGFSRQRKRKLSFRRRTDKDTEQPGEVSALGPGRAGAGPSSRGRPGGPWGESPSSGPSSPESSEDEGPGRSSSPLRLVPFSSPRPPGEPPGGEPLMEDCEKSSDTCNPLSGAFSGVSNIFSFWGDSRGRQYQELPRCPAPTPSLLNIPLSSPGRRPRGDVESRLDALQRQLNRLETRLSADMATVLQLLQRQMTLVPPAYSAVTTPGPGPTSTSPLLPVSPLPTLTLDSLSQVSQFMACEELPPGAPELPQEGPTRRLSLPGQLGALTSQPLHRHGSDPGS

With `Cc1nnc(C(C)C)n1[C@H]1C[C@H]2CC[C@@H](C1)N2CCC(CNC(=O)C1CCC(F)(F)CC1)c1ccccc1` (mixture of isomers) [listing 1 of 2 here], the results for the IC50 in data set [1] and in data set [2] (hos) were no less than 10000 nM and 866 nM, respectively.
`Cn1nc(Cc2ccccc2)cc1C1CCN(CCC(CNS(=O)(=O)c2ccccc2)c2ccccc2)CC1` (racemic): the midpoint of inhibition in data set [2] (setting [8]), the IC50, lay at 88 nM.
On the same count and under the same terms, to `Cc1nnc(C(C)C)n1C1CCN(CCC(CNS(=O)(=O)c2ccccc2)c2ccccc2)CC1` (racemic) belongs 989 nM; to `Cc1nnc(-c2ccccc2)n1C1CCN(CCC(CNS(=O)(=O)c2ccccc2)c2ccccc2)CC1` (racemic), 5020 nM.
Regarding `CCc1nc(Cc2ccccc2)cn1C1CCN(CCC(CNS(=O)(=O)c2ccccc2)c2ccccc2)CC1` (racemic), the values for the IC50 in data set [2] (setting [8]) and in data set [3] were 45 nM and 43 nM, respectively.
As for `Cc1nc2ccccc2n1C1CCN(CCC(CNS(=O)(=O)c2ccccc2)c2ccccc2)CC1` (racemic), in data set [2] (setting [8]), half-maximal inhibition (IC50) required 362 nM.
Turning to `Cc1cc(OS(=O)(=O)c2ccccc2)cc(C)c1C(=O)N1C[C@H]2CN(CCC(CNS(=O)(=O)c3ccccc3)c3ccccc3)C[C@H]2C1` (mixture of isomers), the half-life in data set [4] and in data set [6] was no more than 20 min in each case. For the same compound, the half-inhibitory concentration (IC50) in data set [2] (setting [8]) amounted to 8 nM; in data set [3], 1 nM. Also, the bioavailability in data set [5] turned out to be 2%. Besides, the AUC in the data set on Rattus norvegicus was determined as 10.
For `Cc1nc2ccccc2n1C1CC2CCC(C1)N2CCC(CN(C)S(=O)(=O)c1ccccc1)c1ccccc1` (racemic), the half-life in data set [4] and in data set [6] was no more than 20 min in each case. In addition, the IC50 amounted to 8 nM in data set [2] (setting [8]) and 60 nM in data set [3]. Moreover, the bioavailability in data set [5] came to 5%. This compound showed an AUC in the data set with Rattus norvegicus of 40.
Regarding `Cc1nc2ccccc2n1C1CC2CCC(C1)N2CCC(CNS(=O)(=O)c1ccccc1)c1ccccc1` (racemic), the values for the IC50 in data set [2] (setting [8]) and in data set [3] were 65 nM and 112 nM, respectively.
As to `Cc1nc2ccccc2n1C1CC2CCC(C1)N2CCC(CNS(=O)(=O)c1cccc(C(N)=O)c1)c1ccccc1` (racemic), the IC50 in data set [2] (setting [8]) was 16 nM; in data set [3], 161 nM.
In the case of `Cc1nc2ccccc2n1C1CC2CCC(C1)N2CCC(CN(C)C(=O)C1CCC(F)(F)CC1)c1ccccc1` (racemic), in data set [2] (setting [8]), the IC50 stood at 520 nM.
The compound `Cc1nc2ccccc2n1C1CC2CCC(C1)N2CCC(CNC(=O)C1CCC(F)(F)CC1)c1ccccc1` (racemic) returned a half-maximal inhibitory concentration (IC50) in data set [2] (setting [8]) of 411 nM.
As to `Cc1nc2ccccc2n1C1CC2CCC(C1)N2CCC(CNS(C)(=O)=O)c1ccccc1` (racemic), the half-inhibitory concentration (IC50) in data set [2] (setting [8]) came out at 23 nM; in data set [3] it was 99 nM.
Compound `Cc1nc2ccccc2n1C1CC2CCC(C1)N2CCC(CNS(=O)(=O)N1CCOCC1)c1ccccc1` (racemic) yielded a concentration for half-maximal inhibition (IC50) in data set [2] (setting [8]) of 13 nM.
`CC(=O)NCC(CCN1C2CCC1CC(n1c(C)nc3ccccc31)C2)c1ccccc1` (racemic) had a half-inhibitory concentration (IC50) in data set [2] (setting [8]) of 866 nM.
On the same count and under the same terms, with `COP(=O)(NCC(CCN1C2CCC1CC(n1c(C)nc3ccccc31)C2)c1ccccc1)OC` (racemic) the figure was 77 nM; with `Cc1nc2ccncc2n1[C@H]1C[C@H]2CC[C@@H](C1)N2CCC(CNS(=O)(=O)c1ccccc1)c1ccccc1` (mixture of isomers), 38 nM.
Take `CC(=O)N1CCc2nc(C)n([C@H]3C[C@H]4CC[C@@H](C3)N4CCC(CNS(=O)(=O)c3ccccc3)c3ccccc3)c2C1` (mixture of isomers): the half-life in data set [4] and in data set [6] was no more than 20 min in each case. For the same compound, the IC50 in data set [2] (setting [8]) turned out to be 3 nM; in data set [3] it was 1 nM. Also, the bioavailability in data set [5] is less than 1%. This compound had an AUC in the data set with Rattus norvegicus of 0.
With `Cc1nnc(C(C)C)n1[C@H]1C[C@H]2CC[C@@H](C1)N2CCC(CNC(=O)C1CCC(F)(F)CC1)c1ccccc1` (mixture of isomers) [listing 2 of 2 here], inhibition in data set [2] (hos) was half-maximal at 9740 nM (IC50).
In turn, `Cc1nnc(C(C)C)n1[C@H]1C[C@H]2CC[C@@H](C1)N2CCC(CNC(=O)C1CC(F)(F)C1)c1ccccc1` (mixture of isomers) displayed an IC50 in data set [2] (setting [8]) greater than 20000 nM.
Regarding `Cc1nnc(C(C)C)n1[C@H]1C[C@H]2CC[C@@H](C1)N2CCC(CNC(=O)c1ccccc1)c1ccccc1` (mixture of isomers), the IC50 in data set [1] is no less than 10000 nM; in data set [2] (setting [8]) it was greater than 20000 nM.
As to `Cc1nc2ccccc2n1[C@H]1C[C@H]2CC[C@@H](C1)N2CCC(C)(CN(C)S(=O)(=O)c1ccccc1)c1ccccc1` (mixture of isomers), the half-life in data set [4] and in data set [6] was no more than 20 min throughout. The apparent permeability (Papp) in data set [7] came out at 7 ×10⁻⁶ cm/s. The figures for the IC50 in data set [2] (setting [8]) and in data set [3] were 9 nM and 1 nM, respectively. Further, the bioavailability in data set [5] was less than 1%. The compound also registered an AUC in the data set with Rattus norvegicus of 0.
With `Cc1nc2ccccc2n1[C@H]1C[C@H]2CC[C@@H](C1)N2CCC(C)(CNS(=O)(=O)c1ccccc1)c1ccccc1` (mixture of isomers), the concentration for half-maximal inhibition (IC50) in data set [2] (setting [8]) amounted to 124 nM.
Same read-out and setting: with `Cc1nnc(C(C)C)n1[C@@H]1C[C@H]2CC[C@@H](C1)N2CCC(C)(CNS(=O)(=O)c1ccccc1)c1ccccc1` (mixture of isomers) the figure was 578 nM; with `Cc1nc2ccccc2n1[C@H]1C[C@H]2CC[C@@H](C1)N2CCC(C)(CN(C)C(=O)C1CCC(F)(F)CC1)c1ccccc1` (mixture of isomers), 235 nM.
The same measure, in the same setting: to `Cc1nc2ccccc2n1[C@H]1C[C@H]2CC[C@@H](C1)N2CCC(C)(CNC(=O)C1CCC(F)(F)CC1)c1ccccc1` (mixture of isomers) belongs 249 nM; to `Cc1nnc(C(C)C)n1[C@@H]1C[C@H]2CC[C@@H](C1)N2CCC(C)(CNC(=O)C1CCC(F)(F)CC1)c1ccccc1` (mixture of isomers), 583 nM.
Regarding `Cc1nc2ccccc2n1[C@@H]1C[C@H]2CC[C@@H](C1)N2CCC(CNS(=O)(=O)c1ccccc1)c1ccccc1` (mixture of isomers), half-maximal inhibition in data set [2] (setting [8]) (IC50) was put at 117 nM.
`Cc1nnc(C(C)C)n1[C@H]1C[C@H]2CC[C@@H](C1)N2CCC(CNS(=O)(=O)c1ccccc1)c1ccccc1` (racemic; 14a): the half-inhibitory concentration (IC50) in data set [1] was no less than 10000 nM; in data set [2] (hos), 480 nM.
Turning to `Cc1nnc(C(C)C)n1[C@H]1C[C@H]2CC[C@@H](C1)N2CCC(CNS(=O)(=O)c1ccccc1)c1ccccc1` (racemic; 14b), in data set [2] (hos), the IC50 was 146 nM.

As usually defined, the IC50 is the point on the concentration scale where inhibition reaches its midpoint. As usually defined, the half-life is how long it takes for the measured level to halve. What is called bioavailability is the share of a dose that reaches the circulation, judged against a reference dose that is usually intravenous. As a reminder, the Papp is the rate of passage across a membrane or cell layer, normalised by area and donor concentration.

The values above are taken from ChEMBL document CHEMBL1681652, “Synthesis and evaluation of 2-phenyl-1,4-butanediamine-based CCR5 antagonists for the treatment of HIV-1” (Bioorg Med Chem Lett, 2011).
